In patent US6518279B2, “Cyclopentanone dihydropyridine compounds useful as potassium channel openers” (Abbott Laboratories, priority 1999, dated 2003):
pEC50: −log10 of the molar value. Values after ≈ are worked out from the molar mass of the structure shown. Read-outs that look alike come from different tables or passages of the source.

Columns and labels:
[1] = Aqueous solubility, 50 mM NaH2PO4 buffers, reverse-phase HPLC; format: physicochemical; details: aqueous buffer, thermodynamic from solid, shaking 60 hours, room temperature
Protocol: Aqueous solubilities were determined by shaking 60 hours at room temperature in 50 mM NaH2PO4 buffers at pH's 6.5 and 7.4. Assays were performed using reverse-phase HPLC. The solubilities are expressed in nanomoles per milliliter in Table 4.

[2] = system: guinea-pig urinary bladder (GPB) cells; test: Membrane hyperpolarization (MHP) assay, potassium channel opening activity, DiBAC(4)3 / FLIPR; format: cell-based; details: Cavia porcellus; for Emax: maximal steady-state hyperpolarization in GPB cells, relative to 10 μM P1075 (100%), read-out: Maximal Response (% P1075); for pEC50: membrane hyperpolarization in GPB cells
Protocol: Compounds were evaluated for potassium channel opening activity using primary cultured guinea-pig urinary bladder (GPB) cells.
For the preparation of urinary bladder smooth muscle cells, urinary bladders were removed from male guinea-pigs (Hartley, Charles River, Wilmington, Mass.) weighing 300-400 g and placed in ice-cold Ca^2+-free Krebs solution (Composition, mM: KCl, 2.7; KH2PO4, 1.5; NaCl, 75; Na2HPO4, 9.6; Na2HPO4·7H2O, 8; MgSO4, 2; glucose, 5; HEPES, 10; pH 7.4). Cells were isolated by enzymatic dissociation as previously described with minor modifications (Klockner, U. and Isenberg, G., Pflugers Arch. (1985), 405, 329-339), hereby incorporated by reference. The bladder was cut into small sections and incubated in 5 mL of the Kreb's solution containing 1 mg/mL collagenase (Sigma, St. Louis, Mo.) and 0.2 mg/mL pronase (Calbiochem, La Jolla, Calif.) with continuous stirring in a cell incubator for 30 minutes. The mixture was then centrifuged at 1300×g for 5 minutes, and the pellet resuspended in Dulbecco's PBS (GIBCO, Gaithersburg, Md.) and recentrifuged to remove residual enzyme. The cell pellet was resuspended in 5 mL growth media (composition: Dulbecco's modified Eagle's medium supplemented with 10% fetal bovine serum, 100 units/mL penicillin, 100 units/mL streptomycin and […] amphotericin B) and further dissociated by pipetting the suspension through a flame-polished Pasteur pipette and passing it through a polypropylene mesh membrane (Spectrum, Houston, Tex.). The cell density was adjusted to 100,000 cells/mL by resuspension in growth media. Cells were plated in clear-bottomed black 96-well plates (Packard) for membrane potential studies at a density of 20,000 cells/well and maintained in a cell incubator with 90% air: 10% CO2 until confluent. Cells were confirmed to be of smooth muscle type by cytoskeletal staining using a monoclonal mouse anti human-α-smooth muscle actin (Biomeda, Foster City, Calif.)
Functional activity at potassium channels was measured by evaluating changes in membrane potential using the bis-oxonol dye DiBAC(4)3 (Molecular Probes) in a 96-well cell-based kinetic assay system, Fluorescent Imaging Plate Reader (FLIPR) (K. S. Schroeder et al., J. Biomed. Screen., v. 1 pp. 75-81 (1996)), hereby incorporated by reference. DiBAC(4)3 is an anionic potentiometric probe which partitions between cells and extracellular solution in a membrane potential-dependent manner. With increasing membrane potential (for example, K^+ depolarization), the probe further partitions into the cell; this is measured as an increase in fluorescence due to dye interaction with intracellular lipids and proteins. Conversely, decreasing membrane potential (hyperpolarization by potassium channel openers) evokes a decrease in fluorescence.
Confluent guinea-pig urinary bladder cells cultured in black clear-bottomed 96-well plates were rinsed twice with […] assay buffer (composition, mM: HEPES, 20; NaCl, 120; KCl, 2; CaCl2, 2; MgCl2, 1; glucose, 5; pH 7.4 at 25° C.) containing 5 μM DiBAC(4)3 and incubated with […] of the buffer in a cell incubator for 30 minutes at 37° C. to ensure dye distribution across the membrane. After recording the baseline fluorescence for 5 minutes, the reference or test compounds, prepared at 10 times the concentration in the assay buffer, were added directly to the wells. Changes in fluorescence were monitored for an additional 25 minutes. Hyperpolarization responses were corrected for any background noise and were normalized to the response observed with 10 μM of the reference compound P1075 (assigned as 100%), a potent opener of smooth muscle KATP channels (Quast et al., Mol. Pharmacol., v. 43 pp. 474-481 (1993)), hereby incorporated by reference.
Routinely, five concentrations of P1075 or test compounds (log or half-log dilutions) were evaluated and the maximal steady-state hyperpolarization values (expressed as % relative to P1075) plotted as a function of concentration. […]

[3] = system: Landrace pig bladder strips; test: Functional potassium channel opening activity in isolated bladder strips (field-stimulated twitch); details: for Index: ED50 of P1075 divided by ED50 of test agonist in a given tissue, averaged; for EC50: Sus scrofa, negative logarithm of ED50, Landrace pig bladder strips, read-out: pD2 (converted); for Efficacy (% P1075): maximal efficacy on the stimulated twitch, Landrace pig bladder strips
Protocol: Compounds were evaluated for functional potassium channel opening activity using tissue strips obtained from Landrace pig bladders.
Landrace pig bladders were obtained from female Landrace pigs of 9-30 kg. Landrace pigs were euthanized with an intraperitoneal injection of pentobarbital solution, Somlethal®, J. A. Webster Inc., Sterling Mass. The entire bladder was removed and immediately placed into Krebs Ringer bicarbonate solution (composition, mM: NaCl, 120; NaHCO3, 20; dextrose, 11; KCl, 4.7; CaCl2, 2.5; MgSO4, 1.5; KH2PO4, 1.2; K2EDTA, 0.01, equilibrated with 5% CO2/95% O2 pH 7.4 at 37° C.). Propranolol (0.004 mM) was included in all of the assays to block β-adrenoceptors. The trigonal and dome portions were discarded. Strips 3-5 mm wide and 20 mm long were prepared from the remaining tissue cut in a circular fashion. The mucosal layer was removed. One end was fixed to a stationary glass rod and the other to a Grass FT03 transducer at a basal preload of 1.0 gram. Two parallel platinum electrodes were included in the stationary glass rod to provide field stimulation of 0.05 Hz, 0.5 milli-seconds at 20 volts. This low frequency stimulation produced a stable twitch response of 100-500 centigrams. Tissues were allowed to equilibrate for at least 60 minutes and primed with 80 mM KCl. A control concentration response curve (cumulative) was generated for each tissue using the potassium channel opener P1075 as the control agonist. […] After a 60 minute rinsing period, a concentration response curve (cumulative) was generated for the test agonist in the same fashion as that used for the control agonist P1075. The maximal efficacy of each compounds (expressed as % relative to P1075) is reported. The amount of agent necessary to cause 50% of the agent's maximal response (ED50) was calculated using “ALLFIT” (DeLean et al., Am. J. Physiol. 235, E97 (1980)), hereby incorporated by reference, and agonist potencies were expressed as pD2 (the negative logarithm). Agonist potencies were also expressed as an index relative to P1075. The index was calculated by dividing the ED50 for P1075 by the ED50 for the test agonist in a given tissue. Each tissue was used for only one test agonist, and the indices obtained from each tissue were averaged to provide an average index of potency.

[4] = system: bladder contractions; test: In-vivo bladder efficacy protocol (isovolumetric contractions model); parameters: species or system rat; details: dose reducing area under the curve of bladder contractions by 30%, iv, anesthetized male CD rats
From the text: In-vivo bladder efficacy protocol (isovolumetric contractions model)
Male CD rats (400-450 g) were anesthetized with urethane (0.6 g/kg ip+0.6 g/kg sc). The left femoral artery and vein were cannulated with polyethylene (PE-50) tubing for the measurement of arterial pressure and test compound administration respectively. A third polyethylene catheter (PE-60) was inserted 3-4 mm into the apex of the bladder dome and secured using a 5-0 silk purse string suture. The bladder was emptied via this catheter and additionally by applying slight manual pressure on the lower abdomen. The urinary catheter was connected using a Y-tube connector to both a pressure transducer and a syringe pump. […] After the contractions stabilized to a consistent pattern, bladder pressure and arterial pressure were monitored for 20 minutes before and after a dose of the vehicle (equal parts of β-cyclodextrin stock solution (100 g β-cyclodextrin dissolved in 200 ml) and sterile water) alone. […] Mean arterial pressure and area under the curve of the bladder contractions were determined from the respective waveforms using a Modular Instruments, Inc. computerized data acquisition system and averaged over the last ten minutes of each twenty minute period. […]
Example 3, of the present invention (Table 3, FIG. 1), was dosed at 0.01, 0.1 and 1 μmol/kg. The AUC ED30 for Example 3 was determined to be 0.1 μmol/kg.

[5] = pH 6.5, 50 mM NaH2PO4 buffer, read-out: Aqueous solubility pH 6.5
[6] = pH 7.4, 50 mM NaH2PO4 buffer, read-out: Aqueous solubility pH 7.4

| SMILES | solubility at 60 h [1, 5] [µM] | solubility at 60 h [1, 6] [µM] | pEC50 [2] | EC50 [3] [nM] | melting point [°C] | Emax [2] [%] | Index [3] | Efficacy (% P1075) [3] [% P1075] | AUC ED30 [4] [µmol/kg] | Effect on stimulated twitch ([3]; 10^−9 to 10^−5 M, cumulative, dose dependent) |
| --- | --- | --- | --- | --- | --- | --- | --- | --- | --- | --- |
| O=C1CCC2=C1C(c1ccc(F)c(Br)c1)C1=C(CCC1=O)N2 [Example 1, 8-(3-Bromo-4-fluorophenyl)-2,3,4,5,6,8-hexahydrodicyclopenta[b,e]pyridine-1,7-dione] | 205 (≈ 74.3 µg/mL) | 227 (≈ 82.2 µg/mL) | 7.15 | 158 | – | 102 | 0.48 | 98 | – | – |
| N#Cc1cccc(C2C3=C(CCC3=O)NC3=C2C(=O)CC3)c1 [Example 2, 8-(3-Cyanophenyl)-2,3,4,5,6,8-hexahydrodicyclopenta[b,e]pyridine-1,7-dione] | 1300 (≈ 377 µg/mL) | 1290 (≈ 375 µg/mL) | 5.28 | 6310 | – | 65 | 0.017 | 96 | – | – |
| O=C1CCC2=C1C(c1ccc(Cl)c([N+](=O)[O-])c1)C1=C(CCC1=O)N2 [Example 3, 8-(4-Chloro-3-nitrophenyl)-2,3,4,5,6,8-hexahydrodicyclopenta[b,e]pyridine-1,7-dione] | 129 (≈ 44.5 µg/mL) | 129 (≈ 44.5 µg/mL) | 7.28 | 251 | – | 113 | 0.35 | 98 | 0.1 | – |
| O=C1CCC2=C1C(c1cccc([N+](=O)[O-])c1)C1=C(CCC1=O)N2 [Example 4, 8-(3-Nitrophenyl)-2,3,4,5,6,8-hexahydrodicyclopenta[b,e]pyridine-1,7-dione] | 158 (≈ 49 µg/mL) | 164 (≈ 50.9 µg/mL) | 6.47 | – | – | 123 | – | – | – | – |
| O=C1C=CC2=C1C(c1ccc(F)c(Br)c1)C1=C(CCCC1=O)N2 (centres unmarked) [Example 9, 9-(3-bromo-4-fluorophenyl)-5,6,7,9-tetrahydro-1H-cyclopenta[b]quinoline-1,8(4H)-dione] | – | – | 7.20 | – | – | 100 | – | – | – | – |
| CC1=C(C(=O)O)C(c2ccc(F)c(Br)c2)C2=C(CCC2=O)N1 (centres unmarked) [Example 10, 4-(3-bromo-4-fluorophenyl)-2-methyl-5-oxo-4,5,6,7-tetrahydro-1H-cyclopenta[b]pyridine-3-carboxylic acid] | – | – | 5.57 | – | 211 to 214 | 104 | – | – | – | – |
| CCC(C)(C)N=C(NC#N)Nc1cccnc1 [Example P1075, reference compound] | – | – | – | – | – | – | – | – | – | completely eliminated the stimulated twitch |

Continued, in another order:

| solubility at 60 h [1, 5] [µM] | solubility at 60 h [1, 6] [µM] | pEC50 [2] | EC50 [3] [nM] | melting point [°C] | SMILES | Emax [2] [%] | Index [3] | Efficacy (% P1075) [3] [% P1075] | AUC ED30 [4] [µmol/kg] | Effect on stimulated twitch ([3]; 10^−9 to 10^−5 M, cumulative, dose dependent) |
| --- | --- | --- | --- | --- | --- | --- | --- | --- | --- | --- |
| – | – | 6.85 | – | – | O=C1CCC2=C1C(c1ccc(F)c(Cl)c1)C1=C(CCC1=O)N2 [Example 5, 8-(3-Chloro-4-fluorophenyl)-2,3,4,5,6,8-hexahydrodicyclopenta[b,e]pyridine-1,7-dione] | 72 | – | – | – | – |
| – | – | 7.00 | – | – | O=C1CCC2=C1C(c1ccc(Cl)c(Cl)c1)C1=C(CCC1=O)N2 [Example 6, 8-(3,4-Dichlorophenyl)-2,3,4,5,6,8-hexahydrodicyclopenta[b,e]pyridine-1,7-dione] | 94 | – | – | – | – |
| – | – | 6.89 | – | 272 to 273 | O=C1CCC2=C1C(c1ccc3nonc3c1)C1=C(CCC1=O)N2 [Example 7, 8-(2,1,3-benzoxadiazol-5-yl)-2,3,4,5,6,8-hexahydrodicyclopenta[b,e]pyridine-1,7-dione] | 98 | – | – | – | – |
| – | – | 7.89 | – | – | O=C1CCC2=C1C(c1ccc(F)c(I)c1)C1=C(CCC1=O)N2 [Example 8, 8-(3-Iodo-4-fluorophenyl)-2,3,4,5,6,8-hexahydrodicyclopenta[b,e]pyridine-1,7-dione] | 93 | – | – | – | – |
